Format in all cases: in vivo
Experiment [1] concerns ducksalad (Heteranthera limosa). Put plainly: Test B flooded paddy test. Particulars: Heteranthera limosa, 250 g ai/ha, Flood, read-out: Ducksalad plant response rating. The method, boiled down:
(§1)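 Evaluation by eye, against controls, occurred 13–15 d post-treatment in a greenhouse, using a 0 (no effect) to 100 (complete control) scale. Application was into the paddy water, 3 cm deep over the soil, on 2-leaf plants.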

Experiment [2] deals with sedge, umbrella (small-flower umbrella sedge, Cyperus difformis). Put plainly: Test B flooded paddy test. Particulars: Cyperus difformis, 250 g ai/ha, Flood, read-out: Sedge, Umbrella plant response rating. The method, boiled down:
as §1

Another experiment relates to rice (Oryra sativa). Put plainly: Test B flooded paddy test. Particulars: Oryza sativa, 250 g ai/ha, Flood, read-out: Rice plant response rating. Put shortly:
as §1

The subject of experiment [3] is barnyardgrass (Echinochloa crus-galli). Put plainly: Test B flooded paddy test. The settings on record: Echinochloa crus-galli, 250 g ai/ha, Flood, read-out: Barnyardgrass plant response rating. Put shortly:
as §1

In experiment [4] the test system is pigweed (Amaranthus retroflexus). Put plainly: Test A preemergence. Particulars: Amaranthus retroflexus, pre-emergence, 240 h; for pest or weed control at 125 g/ha: 125 g ai/ha; for pest or weed control at 500 g/ha: 500 g ai/ha.
Experiment [5] has as its system ryegrass, Italian (Italian ryegrass, Lolium multiflorum). Put plainly: Test A preemergence. The settings on record: Lolium multiflorum, pre-emergence, 240 h; for pest or weed control at 125 g/ha: 125 g ai/ha; for pest or weed control at 500 g/ha: 500 g ai/ha. Put shortly:
(§2)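 In a loam soil and sand blend, planted seeds got a preemergence directed soil spray, and young plants at the one- to two-leaf stage, 2–10 cm high, got a postemergence application; ~10 d greenhouse hold; injury rated visually, 0 = none, 100 = complete control.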

Experiment [6] has as its system ragweed (common ragweed, Ambrosia elatior). Put plainly: Test A preemergence. Particulars: Ambrosia artemisiifolia, pre-emergence, 240 h; for pest or weed control at 125 g/ha: 125 g ai/ha; for pest or weed control at 500 g/ha: 500 g ai/ha. Put shortly:
as §2

For experiment [7], the system named is barnyardgrass (Echinochloa crus-galli). Put plainly: Test A preemergence. The settings on record: Echinochloa crus-galli, pre-emergence, 240 h; for pest or weed control at 125 g/ha: 125 g ai/ha; for pest or weed control at 500 g/ha: 500 g ai/ha. Put shortly: as §2
The next experiment deals with Kochia (Kochia scoparia). Put plainly: Test A preemergence. Particulars: Bassia scoparia, pre-emergence, 240 h; for pest or weed control at 125 g/ha: 125 g ai/ha; for pest or weed control at 500 g/ha: 500 g ai/ha. Put shortly: as §2
The test system of experiment [8] is giant foxtail (Setaria faberii). Put plainly: Test A preemergence. Particulars: Setaria faberi, pre-emergence, 240 h; for pest or weed control at 125 g/ha: 125 g ai/ha; for pest or weed control at 500 g/ha: 500 g ai/ha. Put shortly: as §2
For experiment [9], the system named is Galium (catchweed bedstraw, Galium aparine). Put plainly: Test A postemergence. Particulars: Galium, post-emergence, 240 h, postemergence; for pest or weed control at 125 g/ha: 125 g ai/ha. The method, boiled down:
as §2

For another experiment, the system named is corn (Zea mays). Put plainly: Test A postemergence. Particulars: Zea mays, post-emergence, 240 h, postemergence; for plant injury at 125 g/ha: 125 g ai/ha. Put shortly:
as §2

For experiment [10], the system named is ragweed (common ragweed, Ambrosia elatior). Put plainly: Test A postemergence. Particulars: Ambrosia artemisiifolia, post-emergence, 240 h, postemergence; for pest or weed control at 125 g/ha: 125 g ai/ha. Put shortly: as §2
Experiment [11] deals with barnyardgrass (Echinochloa crus-galli). Put plainly: Test A postemergence. Particulars: Echinochloa crus-galli, post-emergence, 240 h, postemergence; for pest or weed control at 125 g/ha: 125 g ai/ha. The method, boiled down: as §2
Where [12] appears, read: 0 to 100 scale where 0 is no effect and 100 is complete control.
Setting [13] is: preemergence, 0 to 100 scale where 0 is no effect and 100 is complete control, read-out: Pigweed plant response rating.
Where [14] appears, read: preemergence, 0 to 100 scale where 0 is no effect and 100 is complete control, read-out: Ryegrass, Italian plant response rating.
Where [15] appears, read: preemergence, 0 to 100 scale where 0 is no effect and 100 is complete control, read-out: Ragweed plant response rating.
[16] abbreviates: preemergence, 0 to 100 scale where 0 is no effect and 100 is complete control, read-out: Barnyardgrass plant response rating.
Where [17] appears, read: preemergence, 0 to 100 scale where 0 is no effect and 100 is complete control, read-out: Kochia plant response rating.
[18] abbreviates: preemergence, 0 to 100 scale where 0 is no effect and 100 is complete control, read-out: Foxtail, Giant plant response rating.
The mark [19] stands for this setting: scale of 0 to 100 where 0 is no effect and 100 is complete control.

Read-outs that look alike come from different tables or passages of the source.

Turning to `O=C1NC[C@H](c2ccc3c(c2)OCO3)[C@H]1C(=O)Nc1cccc(F)c1C(F)(F)F` [Compound 1127], the pest or weed control at 250 g/ha turned out to be 100% in experiment [1] (setting [12]), 0% in [2] (setting [12]), 0% in the experiment on rice (Oryra sativa) (setting [12]) and 0% in experiment [3] (setting [12]). The pest or weed control at 125 g/ha in [4] (preemergence, 0 to 100 scale where 0 is no effect and 100 is complete control, approx. 10 d, read-out: Pigweed plant response rating) turned out to be 0%; in experiment [5] (preemergence, 0 to 100 scale where 0 is no effect and 100 is complete control, approx. 10 d, read-out: Ryegrass, Italian plant response rating), 0%; in [6] (preemergence, 0 to 100 scale where 0 is no effect and 100 is complete control, approx. 10 d, read-out: Ragweed plant response rating), 0%; in experiment [7] (preemergence, 0 to 100 scale where 0 is no effect and 100 is complete control, approx. 10 d, read-out: Barnyardgrass plant response rating), 0%; in the experiment with Kochia (Kochia scoparia) (preemergence, 0 to 100 scale where 0 is no effect and 100 is complete control, approx. 10 d, read-out: Kochia plant response rating), 0%; in [8] (preemergence, 0 to 100 scale where 0 is no effect and 100 is complete control, approx. 10 d, read-out: Foxtail, Giant plant response rating) it was 0%. The pest or weed control at 125 g/ha stood at 0% in [9] (visual injury on 0 to 100 scale (0 no effect, 100 complete control), approx. 10 d, read-out: Galium plant response rating); 0% in [10] (visual injury on 0 to 100 scale (0 no effect, 100 complete control), approx. 10 d, read-out: Ragweed plant response rating); 0% in experiment [11] (visual injury on 0 to 100 scale (0 no effect, 100 complete control), approx. 10 d, read-out: Barnyardgrass plant response rating). Further, the pest or weed control at 500 g/ha in experiment [4] (setting [13]) was 0%; in [5] (setting [14]), 0%; in experiment [6] (setting [15]) it was 0%; in experiment [7] (setting [16]), 30%; with Kochia (Kochia scoparia) (setting [17]), 0%; in experiment [8] (setting [18]) it was 70%. The pest or weed control at 500 g/ha in [9] (500 g ai/ha, 0 to 100 scale, 0 is no effect, 100 is complete control, read-out: Galium plant response rating) turned out to be 40%; in experiment [10] (500 g ai/ha, 0 to 100 scale, 0 is no effect, 100 is complete control, read-out: Ragweed plant response rating) it was 0%; in [11] (500 g ai/ha, 0 to 100 scale, 0 is no effect, 100 is complete control, read-out: Barnyardgrass plant response rating), 40%. For the same compound, the plant injury at 125 g/ha in the experiment on corn (Zea mays) (visual injury on 0 to 100 scale (0 no effect, 100 complete control), approx. 10 d, read-out: Corn plant response rating) worked out at 0%. Moreover, in the experiment on corn (Zea mays) (500 g ai/ha, 0 to 100 scale, 0 is no effect, 100 is complete control, read-out: Corn plant response rating), the plant injury at 500 g/ha is 0%.

As for `CN1C[C@H](c2cccc(C3CC3)c2)[C@@H](C(=O)Nc2cccc(F)c2F)C1=O` [Compound 816], the pest or weed control at 250 g/ha is 75% in [1] (setting [19]), 0% in [2] (setting [19]), 30% in the experiment with rice (Oryra sativa) (setting [19]) and 55% in experiment [3] (setting [19]). For the same compound, the pest or weed control at 125 g/ha in experiment [4] (setting [13]) amounted to 0%; in experiment [5] (setting [14]) it was 70%; in experiment [6] (setting [15]) it was 20%; in experiment [7] (setting [16]), 90%; in the experiment with Kochia (Kochia scoparia) (setting [17]), 60%; in [8] (setting [18]), 90%. The pest or weed control at 125 g/ha in experiment [9] (visual injury rating after approximately 10 d, read-out: Galium plant response rating (0 to 100 scale, 0 no effect, 100 complete control)) was 60%; in experiment [10] (visual injury rating after approximately 10 d, read-out: Ragweed plant response rating (0 to 100 scale, 0 no effect, 100 complete control)) it was 0%; in [11] (visual injury rating after approximately 10 d, read-out: Barnyardgrass plant response rating (0 to 100 scale, 0 no effect, 100 complete control)) it was 90%. The pest or weed control at 500 g/ha in [4] (Preemergence, visual injury vs untreated controls after approximately 10 d, read-out: Pigweed plant response rating (0 to 100 scale where 0 is no effect and 100 is complete control)) turned out to be 60%; in experiment [5] (Preemergence, visual injury vs untreated controls after approximately 10 d, read-out: Ryegrass, Italian plant response rating (0 to 100 scale where 0 is no effect and 100 is complete control)) it was 80%; in [6] (Preemergence, visual injury vs untreated controls after approximately 10 d, read-out: Ragweed plant response rating (0 to 100 scale where 0 is no effect and 100 is complete control)), 50%; in experiment [7] (Preemergence, visual injury vs untreated controls after approximately 10 d, read-out: Barnyardgrass plant response rating (0 to 100 scale where 0 is no effect and 100 is complete control)), 90%; with Kochia (Kochia scoparia) (Preemergence, visual injury vs untreated controls after approximately 10 d, read-out: Kochia plant response rating (0 to 100 scale where 0 is no effect and 100 is complete control)) it was 80%; in [8] (Preemergence, visual injury vs untreated controls after approximately 10 d, read-out: Foxtail, Giant plant response rating (0 to 100 scale where 0 is no effect and 100 is complete control)) it was 90%. Moreover, the plant injury at 125 g/ha in the experiment with corn (Zea mays) (visual injury rating after approximately 10 d, read-out: Corn plant response rating (0 to 100 scale, 0 no effect, 100 complete control)) worked out at 90%.

These data come from patent US12077503B2, “Substituted cyclic amides and their use as herbicides” (FMC CORPORATION, priority 2015, dated 2024).
